# Measurements published in patent US12282015B2, “Systems and methods for testing and screening using compound bound substrates” (Cerus Corporation, priority 2016, dated 2025).
# Tested on: human RBC's
# Assay: Binding of compound to RBC substrate and stability of the surface-bound moiety, anti-acridine antibody staining by flow cytometry (MFI)
# Type: cell-based
# Details: at 37° C.; 0.2 mM compound, 2.0 mM GSH, overnight; mAb and polyAb staining
# Method: A study was performed to assess binding to RBC substrate by the compound 5-220, which is a non-frangible analog of S-303. This study also compared the stability of the surface bound moiety of the 5-220 compound to the stability of a similarly bound frangible S-303. More specifically, glutathione (GSH) quencher and the 5-220 compound were added to human RBC's substrate at concentrations of 2.0 mM and 0.2 mM, respectively, and then incubated overnight at 37° C. or 4° C. For comparison, GSH quencher and the frangible S-303 compound were similarly added to human RBC's at concentrations of 2.0 mM and 0.2 mM, respectively, and incubated overnight at 37° C. or 4° C. Both the non-frangible 5-220 and frangible S-303 compounds comprise an acridine moiety as part of their structures. Following incubation, the GSH/S-220 and GSH/S-303 treated RBC's were stained with either a mouse monoclonal (mAb) or rabbit polyclonal (polyAb) anti-acridine antibody (also at 4° C. or 37° C.), and the samples analyzed for antibody binding by flow cytometry using standard methods (quantitated as MFI). Both the mAb and polyAb anti-acridine antibodies were generated using the compound 5-197 for immunization.
structure (smiles),measurement,value
"O=C(CCNc1c2ccccc2nc2ccccc12)OCCN(CCCl)CCCl [S-303, β-alanine, N-(acridin-9-yl), 2-[bis(2-chloroethyl)amino]ethyl ester]",stability of binding to RBC's,less stable than 5-220 binding to RBC's
